This is an account of results in patent US20150004237A1, “CELLULOSE DERIVATIVES FOR INHIBITING CRYSTALLIZATION OF POORLY WATER-SOLUBLE DRUGS” (Virginia Tech Intellectual Properties, Inc., priority 2012, published 2015).

As a reminder, the pKa is the negative logarithm of the acid dissociation constant. Usually aqueous solubility stands for how much of the substance goes into solution per volume. As usually defined, the solubility (thermodynamic) is solubility found after equilibrating the solid with the medium.

≈ marks a conversion by molar mass, not a printed value. Where “and” joins values, the source holds several entries; their conditions need not be identical. Identical values can stand only once. Like-named read-outs stand apart in the source and are kept apart here.

For data set [1] the following is noted: cited from earlier work.
Data set [2] is described as follows: Ellagic acid release profile. The format is physicochemical. To be noted: pH 6.8 buffer.
The nature of data set [3]: Quercetin release profile. The format is physicochemical. To be noted: pH 6.8 buffer, Que 0.07 mg/mL. The method, then: In the measurement of drug release profiles, maximum Que concentration was fixed at 0.07 mg/mL in pH 6.8 buffer solution. The UV-vis absorption of the solution was measured and plotted vs. time. Release profiles were determined.
A short description of data set [4]: Formation of X-ray amorphous resveratrol-polymer dispersion by rotary evaporation. It is filed as physicochemical. The settings on record: classification system of Van Eerdenbrugh et al. The method, then:
All mixtures were visually inspected to confirm that the resveratrol and the polymers were fully dissolved, and that the systems formed uniform one-phase solutions. […] The samples were then placed under vacuum for 24 h to remove any residual solvents. The obtained material was subsequently cryomilled in a liquid nitrogen bath for a total milling time of 4 min. Powder X-Ray Diffraction. Immediately after cryomilling, the samples were analyzed using a Shimadzu XRD-6000 (Shimadzu Corporation, Kyoto, Japan) equipped with a Cu-Kα source and set in Bragg-Brentano geometry between 5° and 35° 2θ at 8°/min with a 0.04° step size. Samples were also analyzed over time following the storage treatments listed above. […] Samples where sharp peaks were observed were deemed crystalline, and those samples that lacked sharp peaks were labeled X-ray amorphous. Physical mixtures of select resveratrol-polymer systems were made to provide a fully crystallized reference. The percent crystallized for certain samples was estimated from a calibration curve generated from analysis of the diffraction patterns of the different solid dispersions, spiked with increasing levels of crystalline resveratrol. […] The crystallinity of these calibration samples was measured immediately after preparation.

The nature of data set [5]: physchem. The settings on record: 37 °C, pH 6.8, aqueous buffer, thermodynamic from solid.
Data set [6] is described as follows: Crystal growth rate of celecoxib (seeded desupersaturation). It is filed as physicochemical. To be noted: supersaturation ratio of 1.2.
The nature of data set [7]: Crystal growth rate of efavirenz (seeded desupersaturation). The format is physicochemical. To be noted: supersaturation ratio of 1.2.
The conditions of data set [8]: pH 6.8; cited from earlier work.
The nature of data set [9]: Dynamic light scattering particle size of ritonavir during de-supersaturation. The format is physicochemical. The settings on record: ritonavir 25 μg/mL. Here is the method: Dynamic light scattering (DLS) was used to monitor changes in particle size as a function of time during de-supersaturation experiments. DLS experiments were performed using a Nano-Zetasizer (Nano-ZS) and its software, dispersion technology software (DTS). A 173° backscatter detector was used in order to minimize the signal from large dust particles or other large contaminants. A quartz flow-through cuvette, coupled with a pump was used for continuous sampling. […] Particle size experiments were performed in the absence and presence of pre-dissolved polymers. As an example, ritonavir was used at an initial concentration of 25 μg/mL with a polymer concentration of 50 μg/mL. The buffer solution was allowed to equilibrate at 37° C. prior to addition of solubilized ritonavir. Data collection began after generation of supersaturation. A stir-plate was used to stir the solution at a speed of 400 rpm.

A short description of data set [10]: Theoretical amorphous solubility with moisture sorption effect. It is filed as physicochemical. To be noted: 37° C. The source says:
Amorphous solubility can be approximated by estimating the free energy difference between crystalline and amorphous forms using the Hoffman equation: […]
The ratio of amorphous and crystalline solubility (Samorphous/Scrystalline) is then estimated from the free energy difference (ΔGa→σ) calculated from heat of fusion (ΔHf) and melting temperature (Tm) of the crystalline material determined from DSC analysis, as well as the experimentally determined crystalline solubility:
See Murdande, S. B., Pikal, M. J. Shanker, R. M. & Bogner, R. H., “Solubility Advantage of amorphous pharmaceuticals: I. A thermodynamic analysis,” J. Pharm. Sci., 99(3): 1254-1264, (2009) (“Murdande I”) and Murdande, S. B., Pikal, M. J. Shanker, R. M. & Bogner, R. H., “Solubility Advantage of amorphous pharmaceuticals: II. Application of quantitative thermodynamic relationships for prediction of solubility enhancement in structurally diverse insoluble pharmaceuticals,” Pharm. […]
The moisture sorption profile of amorphous ritonavir was determined at 37° C. using a TA Q5000 dynamic vapor sorption analyzer (TA Instruments, New Castle, Del.) equipped with a humidity controlled chamber and an ultrasensitive thermobalance. […] Subsequently, the moisture sorption isotherm was measured by equilibrating the sample under controlled relative humidity (RH) ranging from 5% RH to 95% RH, in 10% RH intervals. […]

For data set [11] the following is noted: cited from earlier work. This is another data set of the same source.
Data set [12] can be described thus: Ritonavir seed crystal size and morphology by SEM. It is filed as physicochemical. The settings on record: After Crystal Growth (S = 15.4). An excerpt: Characterization of Seed Crystals. Ritonavir seed crystals were characterized using scanning electron microscopy (SEM), powder X-ray diffraction analysis (PXRD), and differential scanning calorimetry (DSC). SEM was used to determine the size and shape of ritonavir crystals, while PXRD and DSC were used to evaluate the polymorph of the seed crystals. Ritonavir was used as received from the manufacturer, and prior to use, the seeds were sieved to a size below 250 p.m. Seed crystals used for SEM analysis were prepared by dispersing the seeds in water and equilibrating the water-seed crystal suspension for approximately 24 h. A few drops of the suspension were placed on a glass slide and dried overnight in a vacuum oven at room temperature for approximately 24 h. Before SEM imaging, the glass slides were mounted using double-sticky copper tape and sputter-coated with platinum for 60 s. SEM imaging was performed using an FEI NOVA nanoSEM field emission SEM using an Everhart-Thornley (ET) detector and a through-thelens detector (TLD). The following imaging parameters were used: 5 kV accelerating voltage, approximately 4-5 mm working distance, beam spot size of 3, 30 μm aperture, and 100-10,000× magnifications. The SEM images were analyzed using ImageJ, processing and analysis in Java (National Institutes of Health (NIH)). Several representative samples of seed crystals were obtained before and after crystal growth in the absence and presence of predissolved additive. For each sample, a total of 50 seeds were analyzed to ensure a representative sample, and the average aspect ratio of the crystals was estimated from the average length and width of the crystals.
The polymorphic form of the seed crystals after the crystal growth experiment was also confirmed to be Form II by PXRD. The average length, width, and aspect ratio of ritonavir seed crystals before and after the crystal growth experiment in the presence of the CAP Adp 0.85, Pn-IPAAmd, and CAP Adp 0.85/Pn-IPAAmd polymer combination at initial S values of 7.6 and 15.4 are summarized in Table 6.

Data set [13] in a line: Crystal growth rate of ritonavir (seeded desupersaturation). The format is physicochemical.
The nature of data set [14]: Nucleation-induction time of ritonavir from supersaturated solution. It is filed as physicochemical. To be noted: initial 20 μg/mL, no polymer, pH 6.8, 37° C. Here is the method: The period between the generation of supersaturation and initiation of nucleation was determined by monitoring the absorbance at 280 nm using an ultraviolet/visible spectrometer, fiber optic coupled with a dip probe (SI Photonics® Tucson, Ariz.). Wavelength scans were acquired every 45 seconds. Precipitation was characterized by an increased extinction at 280 nm wavelength. A supersaturated solution of ritonavir was generated by adding 0.4 mL of ritonavir dissolved in methanol at a concentration 4 mg/mL, to 80 mL sodium phosphate buffer, pH 6.8, at 37° C., providing an initial solution concentration of ritonavir of 20 μg/mL. The drug of compositions of the invention can be present in any amount ranging from about 0-100 μg/mL, such as from about 5-10 μg/mL, or from 15-20 μg/mL, or from 25-30 μg/mL, or from 35-50 μg/mL, or from 55-75 μg/mL, or from 80-90 μg/mL. Depending on the drug compound and the types and amounts of polymers used, the most preferred concentration of drug in the compositions ranges from about 5-25 μg/mL. A syringe pump (Harvard Apparatus, Holliston, Mass.) was used to control the rate of addition of organic solution of ritonavir to buffer solution; the flow rate was 0.20 mL/min. […] The ability of the various polymers to affect the nucleation of ritonavir was evaluated using a polymer concentration of 5 μg/mL. […]

The conditions of data set [15]: pH 6.8.
Where [16] appears, read: After Crystal Growth (S = 7.6), values from ref 31 / ref 38.
Where [17] appears, read: After Crystal Growth (S = 7.6), values from ref 31 / ref 38, listed as RTV.
Where [18] appears, read: Before Crystal Growth, values from ref 31.

In the case of `C=CC(=O)O` [Acrylic acid], the pKa in data set [1] was 4.76.
With `O=c1oc2c(O)c(O)cc3c(=O)oc4c(O)c(O)cc1c4c23` [EA, Ellagic Acid], in [2], the “EA release after 24 h” value is 7% and the “time of maximum EA release” value was found to be 2 h. Besides, the “maximum EA release” value in [2] (25° C., EA 0.05 mg/mL) came out at 11%. In data set [1] (pH 7.4), the aqueous solubility is 9.3 µg/mL (≈ 30.8 µM).
For the compound `O=c1c(O)c(-c2ccc(O)c(O)c2)oc2cc(O)cc(O)c12` [Que, Quercetin], the “Que dissolution / release after 1 h” value in data set [3] came out at 0.7%.
As to `Oc1ccc(/C=C/c2cc(O)cc(O)c2)cc1` [Resveratrol], in data set [4], the “crystallization tendency during production” value is recorded as “rapid crystallizer”.
`Cc1ccc(-c2cc(C(F)(F)F)nn2-c2ccc(S(N)(=O)=O)cc2)cc1` [celecoxib] yielded a solubility (thermodynamic) at 48 h in data set [5] of 1.5 µg/mL (≈ 3.93 µM). For the same compound, the “normalized crystal growth rate of celecoxib” value in data set [6] is on record as 18.20 μg mL^−1 min^−1 m^−2.
As for `O=C1Nc2ccc(Cl)cc2[C@@](C#CC2CC2)(C(F)(F)F)O1` [efavirenz], the “normalized crystal growth rate of efavirenz” value in data set [7] is 59.32 μg mL^−1 min^−1 m^−2. The compound further returned a solubility (thermodynamic) at 48 h in data set [5] of 8.2 µg/mL (≈ 26 µM).
Consider Poly vinylpyrrolidone K 29/32 [PVP], for which, in data set [8], the “Equilibrium solubility of ritonavir in the presence of polymer (Table 7)” value was 1.2 ± 0.05 µg/mL.
On to Ritonavir, for which the “time particle size was maintained” value in data set [9] (no polymer) was approximately 100 min. The “size of ritonavir particles” value in data set [9] (polymer 50 μg/mL or none, pH 6.8, 37° C., initially formed particles) was 350-450 nm. Besides, the “calculated amorphous solubility with moisture sorption correction” value in data set [10] is 20.6 µg/mL. Besides, in [11] (setting [16]), the aspect ratio was 8.8 and 7.7; the crystal morphology entry is on record as “needle-like”; the length is given as 50.4 ± 18.6 μm; the width is reported as 5.7±1.4 μm. Moreover, in [11] (setting [17]), the aspect ratio is 8.8 and the width is 5.7 ± 1.4 μm. In data set [11] (setting [18]), the aspect ratio is 7.7, the crystal morphology entry was “needle-like”, the length is recorded as 44.4 ± 15.2 μm and the width is 5.8 ± 1.9 μm. In data set [8], the “Equilibrium solubility of ritonavir, no polymer (Table 7)” value was 1.3 ± 0.10 µg/mL. Further, in data set [12], the aspect ratio was found to be 12.1, the crystal morphology entry is listed as “needle-like”, the length is on record as 50.9 ± 14.4 μm and the width turned out to be 4.2 ± 1.2 μm. Besides, the “initial bulk crystal growth rate of ritonavir” value in data set [13] (100 mM sodium phosphate buffer, initial 10 μg/mL, no polymer, first 2 min) turned out to be 1.56 µg/mL/min. The “normalized crystal growth rate of ritonavir” value in data set [13] (supersaturation ratio of 1.2) is on record as 3.94 μg mL^−1 min^−1 m^−2. Besides, the “induction time of ritonavir” value in data set [14] is “approximately 119 minutes”.
Regarding “poly(N-iso-propylacrylamide) [Pn-IPAAmd]”, in [15], the “Equilibrium solubility of efavirenz in the presence of polymer” value came out at 8.7 ± 0.07 µg/mL and the “Solubility of Ritonavir in the presence of polymer” value amounted to 1.3 ± 0.01 µg/mL. The “Equilibrium solubility of ritonavir in the presence of polymer (Table 7)” value in data set [8] was 1.3 ± 0.01 µg/mL.
